Assay results: patent US4465692A (Nelson Research & Development Company, priority 1982, dated 1984)

Tests used:
D-2 receptor = D-2 receptor (Rattus norvegicus, UniProt P61169)
D-1 receptor = D-1 receptor in carp retina (in vitro); conditions: concentration of agonist required to inhibit the biochemical response by 50%, read-out: Fish retina D-1 receptor IC50

Sequence of D-2 receptor (P61169 whole entry): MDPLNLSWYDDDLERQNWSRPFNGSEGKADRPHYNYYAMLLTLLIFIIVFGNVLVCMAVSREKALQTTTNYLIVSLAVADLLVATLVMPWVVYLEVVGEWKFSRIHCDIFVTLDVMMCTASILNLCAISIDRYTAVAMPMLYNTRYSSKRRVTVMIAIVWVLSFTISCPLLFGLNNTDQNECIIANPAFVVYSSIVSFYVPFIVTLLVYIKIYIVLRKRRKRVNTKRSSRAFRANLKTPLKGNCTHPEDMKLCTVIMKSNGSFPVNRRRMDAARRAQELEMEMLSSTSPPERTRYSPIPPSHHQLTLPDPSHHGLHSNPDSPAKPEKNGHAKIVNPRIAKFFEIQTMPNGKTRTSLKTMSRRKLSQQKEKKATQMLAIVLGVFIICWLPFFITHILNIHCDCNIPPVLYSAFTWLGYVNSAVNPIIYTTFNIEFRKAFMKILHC

SMILES	times more potent than apomorphine at the D-2 receptor (D-2 receptor; relative to apomorphine)	times more potent than dopamine at the D-2 receptor (D-2 receptor; relative to dopamine) [times]	IC50 (D-1 receptor) [nM]
CCCN(CCc1ccccc1)C1CCc2c(O)cccc2C1 (stereo not shown) [PPHT, 2-(N-phenylethyl-N-propylamino)-5-hydroxytetralin]	approximately 40 times	250	3700
CN1CCc2cccc3c2[C@H]1Cc1ccc(O)c(O)c1-3 [Apomorphine, reference compound]	–	–	1500
